Assay type in all cases: physicochemical
A short description of data set [1]: Preparation of compositions (Example 3): appearance and stability of the solution.
Data set [2] can be described thus: Increase in solubility of active compounds in the present compositions. An excerpt: It is advantageous to take measures to increase the solubility of an active compound or active compounds within a composition that includes components that serve as excipients such that true solubilization of the compound(s) occurs and the activity of the active compounds are retained upon transition to the vapor phase. The present disclosure is based on the result that the solubility of active compounds can be increased by surprising and unexpected amounts.

Data set [3] in a line: Trans resveratrol solubility in stock with solvents and co-solutes (incremental addition, heat gun). The protocol:
The initial approach was to test non polar solvents and their effectiveness with ethanol. This included pure stock as a control, carvone, and combinations of those solvents with ethanol. The following solvents were prepared: Control—3.5 ml of pure stock, 1-1.75 ml of stock+1.75 ml of carvone+0.2 ml of 0.01 mol NaOH, 2-3.5 ml of pure carvone, 3-3 ml of stock+0.5 ml of ethanol, 4-3 ml of carvone+0.5 ml of ethanol.
Solution 1 became biphasic and cloudy. The control and solution 4 have approximately the same solubility of TR. […] Solvent was added until the TR was dissolved which occurred at 60 mg/ml of stock. This original solution was split into 5 test tubes of 1 ml each with about 0.06 g of TR.
The following solutions were made: 1—adding […] of carvone (equimolar with TR, 0.000263 mol of each) 2—adding 0.175 ml of ethanol 3-0.235 ml of carvone and 0.1 ml of ethanol. Solution 1 became cloudy because the carvone is immiscible with the stock. Several attempts to fix this were made using of ethanol and B3 amide as hydrotropes but it had no effect.
Next co-solutes were used along with the TR in stock solution. 0.000263 mol of the following were dissolved along with TR in 3 ml stock: 1-niacin, 2-caffeine, 3-gallic acid, 4-salicylic acid, 5-thiamine, 6-niacinamide, and 7-pantothenic acid. Two additional samples were prepared of 0.01 g biotin (8) and 0.04 g of -pyridoxine HCl (9). Each solution consisted of the stated amount of co-solute and 3 ml of stock. The following amounts of TR (which was added incrementally (30-40 mg) and heated for 3-4 minutes by heat gun) created the following:
To conduct further testing 0.5 ml of ethanol was added to the solutions with niacin, biotin, thiamine, and salicylic acid. The successful B3 amide solution was split into two solutions of (1.625 and 1.375 ml) with 0.25 ml of ethanol being added to the 1.375 ml solution. The results were as follows:
There was also testing with multiple solutes in 3 ml of stock:
Currently piperazine hexahydrate is being tested as it is another hydrotrope. […] It may work better with other co-solutes or ethanol.

A short description of data set [4]: Folate solubility in glycerin/2,3 butane diol stock compositions with co-solutes (incremental addition, heat gun, stirring). Conditions: organic solvent or mixture, thermodynamic from solid; stock/water/ethanol solvent. Here is the method: Folate. Folate and biotin are the two most difficult to dissolve B vitamins. Folate solubility enhancement was provided by addition of beta-cyclodextrin.
The solubility enhancement from mannitol/biotin alone was tested next. […] This is major improvement over most polar solvents (0.0016 g/L of water at 25° C.).
First the mannitol/biotin powder was mixed with 0.004 g of folate. This was added to the test tube followed by the liquid. It was stirred vigorously. Then it was heated with a heat gun until clear and no folate was suspended. […] All the liquid was moved to another test tube and the precipitate remained. Then folate was incrementally added (about 1 mg) and the solution was stirred, followed by heating** until it became clear. It would take at least 3 minutes of heating for it to become clear but as more folate was added, at least 4 minutes of heating were needed. This is how the original solution was formed. Over the course of several days there was no further precipitate or increase in viscosity. ** all heating was done with the yellow heat gun on the lowest setting (240° F.)
While heating and stirring the lid popped off and 0.75 ml of solution spilled out. Even accounting for folate lost in the spill, currently at least 8 mg of folate have been dissolved in 2.75 ml and the solution is completely clear. Heating the solution caused the lid to pop so it must be removed after about 1 minute and 30 seconds of heating prior to any further heating. It is also crucial for the solution to have been flipped upside down, preferably while warm. The solution must not be heated while flipped as this may cause a spill.
The original solution still has less much viscosity but also a slightly lower concentration of folate. It appears that somewhere beyond 8 mg folate/[…] of solution it becomes supersaturated, resulting in a thick gel upon settling and cooling. […] As long as supersaturation followed by settling is avoided, the solution will remain liquid. Another option is to study the effect of precipitation inhibitors or the sonicator to further boost solubility without increasing viscosity.
Testing was also done with only stock, stock+water and stock+ethanol but having both water and ethanol is crucial to the process. […] Despite having separated the liquid from the precipitate which was nearly all biotin/mannitol, the powder still played a role in improving folate solubility. […] The following composition (3 ml stock+0.25 ml water+0.25 ml ethanol+0.009 g of biotin) dissolved 11.2 mg of folate but became extremely viscous.
According to research on drug solubility there is a class of molecules known as hydrotropes (also known as chaotropes, […]). They reduce hydrophobic forces between non-polar solutes in polar solvents. One such molecule is niacinamide (vitamin B3 amide). These hydrotropes are planar and are either very polar or have nonpolar and polar sides like surfactants but shorter. This experiment was repeated with niacinamide as a cosolute and with a combination of B3 amide and Biotin. The biotin and B3 amide were added along with 4 mg of folate (and crushed together) wet into dry to the solution. The remaining folate was added incrementally along with heating and stirring. […] (2.5 ml stock+0.5 ml water+0.5 ml ethanol+0.0221 g of B3 amide) dissolved approximately 11 mg of folate and a small amount of precipitate. (2.5 ml stock+0.5 ml water+0.5 ml ethanol+0.0221 g of B3 amide+0.090 g pure biotin) dissolved approximately 11.4 mg of folate without precipitate. Unfortunately both solutions were extremely viscous after a few days.
Eventually the B3 amide and biotin cosolute solution was prepared using “reverse stock” instead of regular with the goal of lowering viscosity. The reverse stock is a solution of 3:7 mol glycerin and 2,3 butane diol. Initially this made folate precipitate so additional glycerin was added to achieve a 1:1 mol ratio of glycerin to 2,3 butane diol.

Where [5] appears, read: 0.693 g L-arginine and 0.693 g l-theanine in 0.75 ml stock, 2.5 ml water, 0.25 ml flavored glycerin.

Read-outs that look alike come from different tables or passages of the source. Peptide text beside a SMILES is read from it. * marks the point of attachment. PhAc = O=C(Cc1ccccc1)*

Usually solubility stands for the dissolved amount per volume that the medium holds.

On to cyanocobalamin [B12], for which, in data set [1] (water, 70% glycerin/30% 2,3 butane diol (v/v), 0.01M NaOH, 95% EtOH, room temperature), the “concentration of final translucent solution” value is given as about 0.21 M. Further, in data set [2], the increase in solubility is recorded as 600%.

For the molecule `Oc1ccc(/C=C/c2cc(O)cc(O)c2)cc1` [TR, Trans-resveratrol], the “amount of TR added” value in data set [3] (0.000263 mol piperazine.6H2O in 1 ml stock) was found to be 0.0731 g; in data set [3] (3 ml stock + 0.000263 mol caffeine (2)), 0.0131 g; in data set [3] (3 ml stock + 0.000263 mol gallic acid (3)), 0.1784 g; in data set [3] (3 ml stock + 0.000263 mol niacin (1)), 0.1776 g; in data set [3] (3 ml stock + 0.000263 mol niacinamide (6)), 0.1738 g; in data set [3] (3 ml stock + 0.000263 mol pantothenic acid (7)) it was 0.0131 g. The “amount of TR added” value came to 0.1784 g in data set [3] (3 ml stock + 0.000263 mol salicylic acid (4)), 0.1808 g in data set [3] (3 ml stock + 0.000263 mol thiamine (5)), 0.1733 g in data set [3] (3 ml stock + 0.01 g biotin (8)) and 0.1859 g in data set [3] (3 ml stock + 0.04 g pyridoxine HCl (9)). For the same molecule, in data set [3] (0.000263 mol piperazine.6H2O in 1 ml stock, 0.0731 g TR), the “appearance of solution after a few days” value is “the solution became dark and there was a small amount of precipitate”. Besides, the “amount of TR dissolved” value in data set [3] (0.0100 g B7+3.5 ml stock+0.5 ml ethanol) is 0.2606 g; in data set [3] (0.0324 g B3+3.5 ml stock+0.5 ml ethanol), 0.2316 g; in data set [3] (0.0698 g B1+3.5 ml stock+0.5 ml ethanol), 0.2333 g; in data set [3] (3 ml stock, 0.03175 g B3 amide+0.069 g B1+0.006352 g B7, footnote: immediately precipitate), 0.025 g; in data set [3] (3 ml stock, 0.0482 g B3 amide+0.03 g B1), 0.1844 g; in data set [3] (3 ml stock, 0.0482 g B3 amide+0.09 g B7, footnote: immediately precipitate), 0.025 g. The “TR dissolved per ml” value in data set [3] (0.048175 B3 amide+1.375+0.25 ml ethanol) and in data set [3] (0.048175 B3 amide+1.625 ml) was 0.125 g TR/ml throughout. The appearance of solution entry was “tiny amount of suspension” in data set [3] (3 ml stock + biotin (8), 0.1733 g TR); “immediately precipitated” in data set [3] (3 ml stock + caffeine (2), 0.0131 g TR); “clearly visible suspension and precipitate on bottom” in data set [3] (3 ml stock + gallic acid (3), 0.1784 g TR); “slight visible suspension of particles” in data set [3] (3 ml stock + niacin (1), 0.1776 g TR); “totally clear solution with low viscosity” in data set [3] (3 ml stock + niacinamide (6), 0.1738 g TR); “cloudy solution without precipitate” in data set [3] (3 ml stock + pantothenic acid (7), 0.0131 g TR). Further, the appearance of solution entry in data set [3] (3 ml stock + pyridoxine HCl (9), 0.1859 g TR) is “clearly visible suspension with precipitate”; in data set [3] (3 ml stock + salicylic acid (4), 0.1784 g TR), “small amount of suspension and precipitate are visible in solution”; in data set [3] (3 ml stock + thiamine (5), 0.1808 g TR) it was “small amount of suspension and precipitate are visible in solution”. Also, the solubility worked out at 60 mg/mL in data set [3] (glycerin/2,3 butane diol stock (70:30 mol), organic solvent or mixture, thermodynamic from solid, pure stock (70:30 mole glycerin:2,3 butane diol), read-out: solubility in stock); 45 mg/mL in data set [3] (organic solvent or mixture, thermodynamic from solid, flavored glycerin (with 2,3 butane diol added) instead of regular stock, read-out: solubility); 60 mg/mL in data set [3] (solution 2: 1 ml TR stock solution + 0.175 ml ethanol). In addition, in data set [1] (0.2 g trans resveratrol, 0.12 g nicotinamide, 0.08 g ethyl vanillin, 0.06 g cinnamic acid in 3.5 ml stock), the “appearance and stability of composition” value is “clear and flavored solution that became unstable after two weeks and precipitated”.

Turning to `Cc1cc2nc3c(=O)[nH]c(=O)nc-3n(C[C@H](O)[C@H](O)[C@H](O)CO)c2cc1C` [riboflavin], in data set [1] (18 mg riboflavin, 9.26 mg l-arginine in 1.5 ml stock and 2.0 ml of 0.1 mol Na2CO3), the appearance of composition result is “clear solution”.

Take `C=C1CC[C@H](O)C/C1=C/C=C1\CCC[C@]2(C)[C@@H]([C@H](C)CCCC(C)C)CC[C@@H]12` [Vitamin D3]: the appearance of composition entry in data set [1] (5 mg Vitamin D3, 15 mg βcyclodextrin, 15 mg cinnamic acid, 15 mg ethyl vanillin in 2.5 ml stock+1.0 ml water, heated at 175° C.) is “clear solution with flavor”. Also, the increase in solubility in data set [2] (in the present compositions, D3 with ß-propoxy cyclodextrin) is on record as 22,000%.

On to `CC(C)(CO)[C@@H](O)C(=O)NCCC(=O)O` [Pantothenic Acid], for which the appearance of composition result in data set [1] (0.2 g vitamin B5 in 1.5 ml stock, 2.0 ml fruit flavored vodka, 0.1 ml flavored glycerin) was “clear and flavored solution”.

As for `CCOC(=O)CNC(=O)[C@@H]1CCCN1C(=O)Cc1ccccc1` [noopept] (PhAc-Pro-Gly-OEt), the appearance of composition entry in data set [1] (0.335 g noopept, 58 mg cinnamic acid in 2.0 ml stock, 2.0 ml ethanol, 0.1 ml flavored glycerin) is “clear and flavored solution”.

Turning to `CCNC(=O)CC[C@H](N)C(=O)O` [l-theanine], the appearance of composition result in data set [1] (setting [5]) is “clear and flavored solution”.

For `N=C(N)NCCC[C@H](N)C(=O)O` [L-arginine], the appearance of composition result in data set [1] (setting [5]) is “clear and flavored solution”.

On to `O=C(O)CCCC[C@@H]1SC[C@@H]2NC(=O)N[C@@H]21` [biotin], for which the solubility in data set [4] is about 3 mg/mL. Moreover, in data set [2], the increase in solubility entry was “comparable increases”.

(Values after US20180228897A1, “Compositions for Vapor Phase Delivery of Active Compounds, Methods of Making and Using Same, and Kits Comprising Same” (Atmovita, LLC, priority 2015, published 2018).)
